Source: ChEMBL document CHEMBL3885881, “DrugMatrix”

Species: Rattus norvegicus
Assay: DrugMatrix - Regimen: Daily Repeat
Assay type: toxicity, organism-based, Sprague-Dawley
Set-up: regimen Daily Repeat, gender Male, age 6-8 weeks
Conditions: in vivo, sc, route subcutaneous, […]; for ABSOLUTE BASOPHIL / ABSOLUTE EOSINOPHIL / ABSOLUTE LYMPHOCYTE / ABSOLUTE MONOCYTE / ABSOLUTE SEGMENTED NEUTROPHIL / BASOPHIL / EOSINOPHIL / ERYTHROCYTE COUNT / HEMATOCRIT / HEMOGLOBIN / LEUKOCYTE COUNT / LYMPHOCYTE / MEAN CORPUSCULAR HEMOGLOBIN / MEAN CORPUSCULAR HEMOGLOBIN CONCENTRATION / MEAN CORPUSCULAR VOLUME / MONOCYTE / NEUTROPHIL / NUCLEATED RED BLOOD CELLS / PLATELET COUNT: tissue Blood; for ALANINE AMINOTRANSFERASE / ALBUMIN / ALKALINE PHOSPHATASE / ASPARTATE AMINOTRANSFERASE / BLOOD UREA NITROGEN / CARBON DIOXIDE / CHLORIDE / CHOLESTEROL / CREATINE PHOSPHOKINASE / CREATININE / GLUCOSE / LACTATE DEHYDROGENASE / LIPASE / PHOSPHORUS / POTASSIUM / SODIUM / TOTAL BILIRUBIN / TOTAL PROTEIN / URIC ACID: tissue Plasma
[1] = 0 mg/kg, 72 h, dose level Control, time 3 day
[2] = 0 mg/kg, 120 h, dose level Control, time 5 day
[3] = 50 mg/kg, 72 h, dose level Low, time 3 day

With `CC(C)(c1ccc(O)cc1)c1ccc(O)cc1` [BISPHENOL A] the “ABSOLUTE BASOPHIL” value [1] was 0 CELLS/uL, the “ABSOLUTE EOSINOPHIL” value [1] was 0 CELLS/uL and the “ABSOLUTE LYMPHOCYTE” value [1] was 9782.33 CELLS/uL. The “ABSOLUTE MONOCYTE” value [1] was 114.67 CELLS/uL, the “ABSOLUTE SEGMENTED NEUTROPHIL” value [1] was 753 CELLS/uL and the BASOPHIL [1] was 0%. The EOSINOPHIL [1] was 0%, the “ERYTHROCYTE COUNT” value [1] was 5.14 x10E6/uL and the HEMATOCRIT [1] was 32.12%. The HEMOGLOBIN [1] was 13.13 G/DL, the “LEUKOCYTE COUNT” value [1] was 10.65 x10E3/uL and the LYMPHOCYTE [1] was 91.83%. The “MEAN CORPUSCULAR HEMOGLOBIN” value [1] was 25.83 pg, the “MEAN CORPUSCULAR HEMOGLOBIN CONCENTRATION” value [1] was 41.28 G/DL and the “MEAN CORPUSCULAR VOLUME” value [1] was 62.43 fL. For the same molecule, the MONOCYTE [1] was 1%, the NEUTROPHIL [1] was 7.17% and the “NUCLEATED RED BLOOD CELLS” value [1] was 0.17 /100WBC. The “PLATELET COUNT” value [1] was 657.83 x10E3/uL, the “ALANINE AMINOTRANSFERASE” value [1] was 60.33 u/L and the ALBUMIN [1] was 3.83 G/DL. For the same molecule, the “ALKALINE PHOSPHATASE” value [1] was 366.33 u/L, the “ASPARTATE AMINOTRANSFERASE” value [1] was 104.5 u/L and the “BLOOD UREA NITROGEN” value [1] was 12.33 mg/dL. The “CARBON DIOXIDE” value [1] was 23.17 mmol/L, the CHLORIDE [1] was 96.67 MEQ/L and the CHOLESTEROL [1] was 73.17 mg/dL. For the same molecule, the “CREATINE PHOSPHOKINASE” value [1] was 545.83 u/L, the CREATININE [1] was 0.26 mg/dL and the GLUCOSE [1] was 144.33 mg/dL. For the same molecule, the “LACTATE DEHYDROGENASE” value [1] was 147.5 u/L, the LIPASE [1] was 9.33 u/L and the PHOSPHORUS [1] was 10.83 mg/dL. For the same molecule, the POTASSIUM [1] was 5.68 MEQ/L, the SODIUM [1] was 138.83 MEQ/L and the “TOTAL BILIRUBIN” value [1] was 0.17 mg/dL. The “TOTAL PROTEIN” value [1] was 5.42 G/DL, the “URIC ACID” value [1] was 0.65 mg/dL and the “ABSOLUTE BASOPHIL” value [2] was 0 CELLS/uL. The “ABSOLUTE EOSINOPHIL” value [2] was 43.33 CELLS/uL, the “ABSOLUTE LYMPHOCYTE” value [2] was 12883 CELLS/uL and the “ABSOLUTE MONOCYTE” value [2] was 166.83 CELLS/uL. The “ABSOLUTE SEGMENTED NEUTROPHIL” value [2] was 1290.17 CELLS/uL, the BASOPHIL [2] was 0% and the EOSINOPHIL [2] was 0.33%. For the same molecule, the “ERYTHROCYTE COUNT” value [2] was 5.79 x10E6/uL, the HEMATOCRIT [2] was 36.37% and the HEMOGLOBIN [2] was 14.17 G/DL. For the same molecule, the “LEUKOCYTE COUNT” value [2] was 14.38 x10E3/uL, the LYMPHOCYTE [2] was 89.17% and the “MEAN CORPUSCULAR HEMOGLOBIN” value [2] was 24.48 pg. The “MEAN CORPUSCULAR HEMOGLOBIN CONCENTRATION” value [2] was 38.98 G/DL, the “MEAN CORPUSCULAR VOLUME” value [2] was 62.83 fL and the MONOCYTE [2] was 1.17%. For the same molecule, the NEUTROPHIL [2] was 9.33%, the “NUCLEATED RED BLOOD CELLS” value [2] was 0.5 /100WBC and the “PLATELET COUNT” value [2] was 1267.33 x10E3/uL. The “ALANINE AMINOTRANSFERASE” value [2] was 53.5 u/L, the ALBUMIN [2] was 3.82 G/DL and the “ALKALINE PHOSPHATASE” value [2] was 342.33 u/L. For the same molecule, the “ASPARTATE AMINOTRANSFERASE” value [2] was 83.67 u/L, the “BLOOD UREA NITROGEN” value [2] was 13.17 mg/dL and the “CARBON DIOXIDE” value [2] was 28.17 mmol/L. The CHLORIDE [2] was 101.5 MEQ/L, the CHOLESTEROL [2] was 70.83 mg/dL and the “CREATINE PHOSPHOKINASE” value [2] was 656.67 u/L. For the same molecule, the CREATININE [2] was 0.17 mg/dL, the GLUCOSE [2] was 171.33 mg/dL and the “LACTATE DEHYDROGENASE” value [2] was 169 u/L. It also gave an LIPASE [2] of 9.17 u/L, a PHOSPHORUS [2] of 12.88 mg/dL and a POTASSIUM [2] of 6.54 MEQ/L. The SODIUM [2] was 141.2 MEQ/L, the “TOTAL BILIRUBIN” value [2] was 0.18 mg/dL and the “TOTAL PROTEIN” value [2] was 5.68 G/DL. For the same molecule, the “URIC ACID” value [2] was 2.02 mg/dL, the “ABSOLUTE BASOPHIL” value [3] was 0 CELLS/uL and the “ABSOLUTE EOSINOPHIL” value [3] was 47.33 CELLS/uL. The “ABSOLUTE LYMPHOCYTE” value [3] was 13197 CELLS/uL, the “ABSOLUTE MONOCYTE” value [3] was 0 CELLS/uL and the “ABSOLUTE SEGMENTED NEUTROPHIL” value [3] was 655.67 CELLS/uL. The BASOPHIL [3] was 0%, the EOSINOPHIL [3] was 0.33% and the “ERYTHROCYTE COUNT” value [3] was 5.26 x10E6/uL. The HEMATOCRIT [3] was 33.73%, the HEMOGLOBIN [3] was 13.37 G/DL and the “LEUKOCYTE COUNT” value [3] was 13.9 x10E3/uL. The LYMPHOCYTE [3] was 94.67%, the “MEAN CORPUSCULAR HEMOGLOBIN” value [3] was 25.43 pg and the “MEAN CORPUSCULAR HEMOGLOBIN CONCENTRATION” value [3] was 39.67 G/DL. For the same molecule, the “MEAN CORPUSCULAR VOLUME” value [3] was 64.23 fL, the MONOCYTE [3] was 0% and the NEUTROPHIL [3] was 5%. The “NUCLEATED RED BLOOD CELLS” value [3] was 0 /100WBC, the “PLATELET COUNT” value [3] was 1085.33 x10E3/uL and the “ALANINE AMINOTRANSFERASE” value [3] was 58.33 u/L. The ALBUMIN [3] was 4.1 G/DL, the “ALKALINE PHOSPHATASE” value [3] was 341 u/L and the “ASPARTATE AMINOTRANSFERASE” value [3] was 86.67 u/L. For the same molecule, the “BLOOD UREA NITROGEN” value [3] was 11.33 mg/dL, the “CARBON DIOXIDE” value [3] was 27.67 mmol/L and the CHLORIDE [3] was 96.5 MEQ/L. For the same molecule, the CHOLESTEROL [3] was 65.67 mg/dL, the “CREATINE PHOSPHOKINASE” value [3] was 317.33 u/L and the CREATININE [3] was 0.21 mg/dL. The GLUCOSE [3] was 134 mg/dL, the “LACTATE DEHYDROGENASE” value [3] was 126.67 u/L and the LIPASE [3] was 12.33 u/L. The PHOSPHORUS [3] was 10.53 mg/dL, the POTASSIUM [3] was 5.77 MEQ/L and the SODIUM [3] was 139.05 MEQ/L. For the same molecule, the “TOTAL BILIRUBIN” value [3] was 0.17 mg/dL, the “TOTAL PROTEIN” value [3] was 5.33 G/DL and the “URIC ACID” value [3] was 0.37 mg/dL.
